Reference: US7220769B2, “Azolylbenzamides and analogues and their use for treating osteoporosis” (Nikem Research S.R.L., priority 1999, dated 2007)

Test system: not given
Conditions: not given

Structure (SMILES) | melting point
CN1C(C)(C)CC(NC(=O)c2ccc(-c3nc4cc(Cl)c(Cl)cc4[nH]3)cc2)CC1(C)C [Example 1, 4-(5,6-Dichlorobenzimidazol-2-yl)-N-(1,2,2,6,6-pentamethylpiperidin-4-yl)benzamide] | > 280 °C
CN1C(C)(C)CC(NC(=O)c2ccc(-c3nc4cc(Cl)ccc4[nH]3)cc2)CC1(C)C [Example 2, 4-(5-Chlorobenzimidazol-2-yl)-N-(1,2,2,6,6-pentamethylpiperidin-4-yl)-benzamide] | > 250 °C
CN1C(C)(C)CC(NC(=O)c2ccc(-c3nc4cc(Cl)c(Cl)cc4[nH]3)c(O)c2)CC1(C)C [Example 3, 4-(5,6-Dichlorobenzimidazol-2-yl)-N-(1,2,2,6,6-pentamethylpiperidin-4-yl)-3-hydroxybenzamide] | > 250 °C
COc1cc(C(=O)NC2CC(C)(C)N(C)C(C)(C)C2)ccc1-c1nc2cc(Cl)c(Cl)cc2n1C [Example 5, 4-(5,6-Dichloro-1-methylbenzimidazol-2-yl)-N-(1,2,2,6,6-pentamethylpiperidin-4-yl)-3-methoxybenzamide] | 178 to 180 °C
COc1cc(C(=O)NCCCN2CCN(c3ncccn3)CC2)ccc1-c1nc2cc(Cl)c(Cl)cc2[nH]1 [Example 7, 4-(5,6-Dichlorobenzimidazol-2-yl)-N-[3-[4-(2-pyrimidinyl)piperazin-1-yl]propyl]-3-methoxybenzamide] | 255 to 258 °C
O=C(NCCCN1CCN(c2ncccn2)CC1)c1ccc(-c2nc3cc(Cl)c(Cl)cc3[nH]2)c(O)c1 [Example 8, 4-(5,6-Dichlorobenzimidazol-2-yl)-N-[3-[4-(2-pyrimidinyl)piperazin-1-yl]propyl]-3-hydroxybenzamide] | 258 to 260 °C
CCOc1cc(C(=O)Nc2cccnc2)ccc1-c1nc2cc(Cl)c(Cl)cc2[nH]1 [Example 15, 4-(5,6-Dichlorobenzimidazol-2-yl)-N-(3-pyridyl)-3-ethoxybenzamide] | > 260 °C
CCOc1cc(C(=O)NCCCO)ccc1-c1nc2cc(Cl)c(Cl)cc2[nH]1 [Example 16, 4-(5,6-Dichlorobenzimidazol-2-yl)-N-(3-hydroxypropyl)-3-ethoxybenzamide] | 148 to 150 °C
COc1cc(-c2nc3cc(Cl)c(Cl)cc3[nH]2)c(OC)cc1C(=O)NC1CC(C)(C)N(C)C(C)(C)C1 [Example 17, 4-(5,6-Dichlorobenzimidazol-2-yl)-N-(1,2,2,6,6-pentamethylpiperidin-4-yl)-2,5-dimethoxybenzamide] | > 250 °C
COc1cc(-c2nc3cc(Cl)c(Cl)cc3[nH]2)c(OC)cc1C(=O)NC1CC(C)(C)NC(C)(C)C1 [Example 18, 4-(5,6-Dichlorobenzimidazol-2-yl)-N-(2,2,6,6-tetramethylpiperidin-4-yl)-2,5-dimethoxybenzamide] | > 250 °C

More lines, now with the values ahead:

melting point | Structure (SMILES)
285 to 286 °C | COc1cc(C(=O)NC2CC(C)(C)N(C)C(C)(C)C2)ccc1-c1nc2cc(Cl)c(Cl)cc2[nH]1 [Example 4, 4-(5,6-Dichlorobenzimidazol-2-yl)-N-(1,2,2,6,6-pentamethylpiperidin-4-yl)-3-methoxybenzamide]
> 280 °C | CCOc1cc(C(=O)NC2CC(C)(C)NC(C)(C)C2)ccc1-c1nc2cc(Cl)c(Cl)cc2[nH]1 [Example 6, 4-(5,6-Dichlorobenzimidazol-2-yl)-N-(2,2,6,6-tetramethylpiperidin-4-yl)-3-ethoxybenzamide]
233 to 235 °C | COc1cc(C(=O)NC2CC(C)(C)NC(C)(C)C2)ccc1-c1nc2cc(Cl)c(Cl)cc2[nH]1 [Example 10, 4-(5,6-Dichlorobenzimidazol-2-yl)-N-(2,2,6,6-tetramethylpiperidin-4-yl)-3-methoxybenzamide]
240 to 242 °C | COc1cc(C(=O)N(C)C2CC(C)(C)NC(C)(C)C2)ccc1-c1nc2cc(Cl)c(Cl)cc2[nH]1 [Example 11, 4-(5,6-Dichlorobenzimidazol-2-yl)-N-(2,2,6,6-tetramethylpiperidin-4-yl)-N-methyl-3-methoxybenzamide]
> 250 °C | Cc1cc(C(=O)NC2CC(C)(C)NC(C)(C)C2)ccc1-c1nc2cc(Cl)c(Cl)cc2[nH]1 [Example 13, 4-(5,6-Dichlorobenzimidazol-2-yl)-N-(2,2,6,6-tetramethylpiperidin-4-yl)-3-methylbenzamide]
222 to 225 °C | CCOc1cc(C(=O)NC2CC(C)(C)NC(C)(C)C2)ccc1-c1nc2ccc(Cl)cc2[nH]1 [Example 19, 4-(5-Chlorobenzimidazol-2-yl)-N-(2,2,6,6-tetramethylpiperidin-4-yl)-3-ethoxybenzamide]

Test system: osteoclast cultures
Conditions: cited from earlier work

Structure (SMILES) | inhibit bone resorption
CO/C1=C\C(C)=C\[C@@H](C)[C@@H](O)[C@@H](C)C/C(C)=C/C=C/[C@H](OC)[C@@H]([C@@H](C)[C@@H](O)[C@H](C)[C@@]2(O)C[C@@H](O)[C@H](C)[C@@H](C(C)C)O2)OC1=O [bafilomycin A1] | able to inhibit bone resorption

Test system: osteoclast proton pump
Conditions: membrane vesicles from avian osteoclasts, ATP-driven acidification, acridine orange quench; cited from earlier work

Structure (SMILES) | proton transport inhibited / not inhibited
CCN1C(=O)C=CC1=O [N-ethylmaleimide] | inhibited
Cc1nc2c(OCc3ccccc3)cccn2c1CC#N [SCH 28080] | not inhibited
CO/C1=C\C(C)=C\[C@@H](C)[C@@H](O)[C@@H](C)C/C(C)=C/C=C/[C@H](OC)[C@@H]([C@@H](C)[C@@H](O)[C@H](C)[C@@]2(O)C[C@@H](O)[C@H](C)[C@@H](C(C)C)O2)OC1=O [bafilomycin A1] | inhibited
C[C@@H]1O[C@@H](O[C@H]2C[C@@H](O)[C@]3(CO)[C@H]4[C@H](O)C[C@]5(C)[C@@H](C6=CC(=O)OC6)CC[C@]5(O)[C@@H]4CC[C@]3(O)C2)[C@H](O)[C@H](O)[C@H]1O [ouabain] | not inhibited
[Na+].[Na+].[Na+].[O]=[V]([O-])([O-])[O-] [sodium orthovanadate] | not inhibited
